This passage reports TGI and GI50 results from PubChem BioAssay (NCI).

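Compound exposure: 48 hours, 5 concentrations, 96-well plates. GI50: concentration for 50% inhibition of growth. TGI denotes the concentration required for complete inhibition of growth.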 Some results are limits rather than exact numbers.

Among the test systems are SK-MEL-5 melanoma; LXFL 529 NSCLC; RPMI-8226 leukemia; DLD-1 colon; M19-MEL melanoma; KM20L2 colon; DMS 114 small cell lung; DMS 273 small cell lung; SNB-78 CNS; OVCAR-5 ovarian; MDA-N; HT29 colon; NCI-H226 lung.
Common to all, as to experiment: inhibition of tumour cell growth, NCI panel, 48 h

For the compound `O=C(N/N=C/C=C/c1ccccc1)[C@H](O)[C@@H](O)C(=O)N/N=C/C=C/c1ccccc1`, the TGI in the assay with SK-MEL-5 melanoma, in the assay with LXFL 529 NSCLC, in the assay on RPMI-8226 leukemia, with DLD-1 colon, in the assay with M19-MEL melanoma and in the assay on KM20L2 colon was > 100 µM each time. Further, the TGI with DMS 114 small cell lung, in the assay with DMS 273 small cell lung, in the assay on SNB-78 CNS and in the assay with OVCAR-5 ovarian was > 100 µM each time.

Turning to `COc1ccc(CC2CCc3nc(N)nc(N)c3C2)cc1OC` (configuration not stated), the TGI with MDA-N is > 44 µM; in the assay on SK-MEL-5 melanoma, 18.5 µM; in the assay on HT29 colon it was > 24.5 µM; with NCI-H226 lung it was 42.4 µM; with RPMI-8226 leukemia, > 100 µM; with OVCAR-5 ovarian, > 100 µM.

`CCN(CCO)C(=O)C1(c2ccccc2)CCCCC1`: the TGI with SK-MEL-5 melanoma, in the assay with HT29 colon, in the assay on NCI-H226 lung, in the assay on RPMI-8226 leukemia and in the assay on OVCAR-5 ovarian was > 10 µM in each case.

Regarding `C[C@]12CC[C@H](OC(=O)Cc3ccc(N(CCCl)CCCl)cc3)CC1=CC[C@@H]1[C@@H]2CC[C@]2(C)C(=O)CC[C@@H]12`, the TGI in the assay with MDA-N, in the assay on SK-MEL-5 melanoma, in the assay with HT29 colon, with NCI-H226 lung, in the assay with RPMI-8226 leukemia and in the assay on OVCAR-5 ovarian was > 100 µM in each case.

As for `OCCCNc1nc(=S)[nH]c2[nH]ncc12`, the GI50 is 31.3 µM with SK-MEL-5 melanoma; 54.8 µM with HT29 colon; 27.6 µM with NCI-H226 lung; 80.8 µM in the assay with RPMI-8226 leukemia; 45.8 µM in the assay on OVCAR-5 ovarian. In addition, the TGI in the assay with SK-MEL-5 melanoma is > 100 µM; in the assay with HT29 colon it was > 100 µM; with NCI-H226 lung it was 72.6 µM; with RPMI-8226 leukemia, > 100 µM; with OVCAR-5 ovarian, > 100 µM.
